Entries after “also recorded” stand apart in the source; their conditions may differ. Read-outs that look alike come from different tables or passages of the source.
Assays:
[1] = tested on: frataxin deficient fibroblasts (GM03665); assay: cells; assay type: cell-based
[2] = tested on: HepG2 human hepatocarcinoma cells; assay: Rotenone ATP Assay (Complex I Assay); assay type: cell-based; settings: for Complex I by-pass activity / restoring ATP production, in words: summary of rotenone assays; for EC50: HepG2, 50 micromolar rotenone, 60 minutes
Description: This assay has been adapted from Haefeli R H, Erb M, Gemperli A C, Robay D, Courdier Fruh I, et al. (2011) NQO1-Dependent Redox Cycling of Idebenone: Effects on Cellular Redox Potential and Energy Levels. PLoS ONE 6(3): e17963. HepG2 human hepatocarcinoma cells were co-incubated with the electron transport chain Complex I toxin rotenone +/− compounds of interest and the corresponding effect on ATP synthesis was measured with a bioluminescent substrate.
In brief, HepG2 cells were plated at 25,000 cells per well in low glucose (1 gram/Liter) DMEM medium+10% fetal calf serum and incubated for 24 hours. The following day, the media was decanted and subsequently replaced with glucose free/serum free DMEM which has been supplemented with 50 micromolar rotenone and compound of interest. Serial dilutions of compound were prepared in 3× dilutions beginning at 25 micromolar. The cells were incubated for 60 minutes in a humidified tissue culture incubator. Following incubation, ATP levels were quantified via bioluminescent assay (Promega […] Glo Assay kit) and readings were captured on a standard microplate reader.
ATP bioluminescence is plotted versus the log of compound of interest and data were used to generate EC50 values. Curve fitting was performed using a sigmoidal dose response curve fit function (GraphPad Prism software).
Robustness of curve fit was assessed as a quality control measure, with an R squared value of at least 0.80 being required for a successful curve fit. Compounds of interest showing an increase in ATP bioluminescence relative to vehicle control were verified in an independent biological replicate of n=3 technical replicates per dose.
This assay is a direct measure of the ability of compounds of interest to restore ATP production under conditions of inhibition of Complex I of the mitochondrial electron transport chain. As the majority of ATP produced via the electron transport chain is thought to derive from Complex I activity, significant impairment in Complex I function has dire biological consequences. Of note, Complex I mutations are thought to drive pathophysiology in multiple mitochondrial diseases, including Leigh syndrome and Leber's Hereditary Optic Neuropathy (LHON), while diminished Complex I activity and the resultant attenuation of ATP production has been shown in neurodegenerative diseases, including Friedreich's Ataxia, Parkinson's Disease and Huntington's Disease.

[3] = tested on: GM03665 cells; assay: RSL3 Toxicity Assay (RSL3 Assay); assay type: cell-based, human; settings: for EC50: 2 μM RSL3, 24 hours, MTT
Description: In brief, GM03665 cells (Coriell Institute) were seeded in 96-well plates (Sarstedt) in DMEM cell culture media containing 10% Fetal Bovine serum and 1% Penicillin-Streptomycin (Pen-Strep) antibiotic mix at the amount of 2×10^4/mL (100 μL or 2×10^3 cells per well). Cells were left to rest overnight at 37° C. in a humidified atmosphere with 5% CO2 to allow attachment of the cells to the culture plate. Test compounds were prepared as DMSO stocks (10 mM) and were serially diluted in cell culture media to obtain 2× working solutions. Cell media was discarded and replaced by 50 μL of test compound solutions or cell media with vehicle for control wells. Within 15 minutes, 2× working solution (4 μM) of 1S,3R-RSL3 (CAS #1219810-16-8, Sigma-Aldrich) (diluted from 5 mM DMSO stock in cell culture media) was added. Final reaction volume was 100 μL and final DMSO concentration in reaction was kept below 0.2% (v/v) and equal in all wells. Final RSL3 concentration was 2 μM and test compound final concentrations in reaction were up to 1000 nM. After 24 hours of incubation cell viability was assessed by MTT test. MTT (Sigma-Aldrich) solution 1 mg/mL in 1×PBS (pH=7,4) was prepared 1 hour before the assay and filtered through Filtropur S 0.2 filters (Sarstedt). Cell media with test compounds was discarded and 100 μL of MTT solution was added to cells. The plates were incubated for 2 hours at +37° C. Thereafter, the MTT solution was removed and 100 μL of isopropanol was added to dissolve sediment. Absorption at 570 and 650 nm was measured using Hidex Sense microplate reader.

[4] = tested on: HepG2 cells; assay: Rotenone Oxygraph Assay (high-resolution respirometry of intact HepG2 cells); assay type: cell-based, human; settings: Table 7; 1 μM rotenone, compound 10 μM
Description: The Oxygraph-2 k (O2k, OROBOROS INSTRUMENTS, Austria) was used for measurements of respiration of intact cells. The respirometry was performed in Dulbecco's Modified Eagle Medium (DMEM) high glucose without supplements. All experiments were performed at 37° C.
HepG2 cells (ATCC collection code HB-8065™) were cultured in 10 cm^2 culture dishes in DMEM high glucose medium supplemented with 10% fetal bovine serum (FBS) and 100 units/mL penicillin and 100 μg/mL streptomycin until approximately 90% confluence was reached. Immediately prior to performing the respirometric assay, the cells were washed with media without FBS, trypsinized and resuspended in DMEM high glucose without FBS.
The final concentration of intact cells in the O2k-chamber was 0.5·10^6/mL. After stabilization of respiration, the Complex I inhibitor, rotenone, at 1 μM final concentration was added to inhibit electron flux via Complex I. Then, compound to be tested was added at 10 μM final concentration, and the change in respiration rate of intact cells was monitored.

[5] = tested on: Nrf-2; assay: Nrf-2 Activation Assay (Nrf-2 Assay); assay type: cell-based, human; settings: for activation of Nrf-2 pathway, in words: FIG. 7; for Nrf-2 Assay: Table 7, 1 μM compound, 24 hours, qPCR of Nrf-2 responsive genes
Description: This assay was developed internally and was designed to determine if the novel test compounds disclosed herein active Nrf-2 and thereby promote resolution of inflammation by the mechanism believed to be responsible for the activity of omaveloxolone.
Briefly, GM03665 Friedreich Ataxia patient fibroblasts were grown in 12 Well Plates (TC Cell+F) (Sarstedt, Numbrecht Germany), at a density of […] in DMEM/F12 (Gibco, ThermoFisher Scientific, Waltham, MA, USA) cell media supplemented with 10% FBS and 1% Pen/Strep. Cells were left to rest overnight at 37° C. in a humidified atmosphere with 5% CO2 to allow attachment of the cells to the culture plate. Before continuing assay visual inspection of each well was done by light microscopy to detect any possible bacterial and fungal contamination. […] After incubation, cell media was removed and total RNA from the cells was isolated using E.Z.N.A.® Total RNA Kit I (Omega Bio-tek, Norcross, Georgia, USA) spin columns, and first-strand cDNA synthesis was carried out using a High Capacity cDNA Reverse Transcription Kit (Applied Biosystems™, Foster City, CA) following the manufacturer's instructions. qPCR analysis of gene expression was performed by mixing SYBR® Green Master Mix (Applied Biosystems™) with synthesized cDNA and forward and reverse primers. […] (60 cycles), and 95° C. for 60 seconds, followed by melt curve analysis at 72-95° C., 0.3° C./sec. The relative expression levels for each gene were calculated with the ΔΔCt method and normalized to the expression of REEP5 and SNRPD3 genes.

[6] = biological target: lipoxygenase-15 enzyme (Glycine max (Soybean) (Glycine hispida), UniProt P08170); assay: Lipoxygenase-15 Assay (LO-15 Assay); settings: reduced form of compounds

Compound	activity in BSO assay (protection from BSO induced cell death), in words [1]	Complex I by-pass activity / restoring ATP production, in words [2]	activity in RSL3 assay (protection from RSL3 induced ferroptosis), in words [3]	Rotenone Oxygraph Assay % Increase [4]	activation of Nrf-2 pathway, in words [5]	Nrf-2 Assay [5]	activity in LO-15 assay, in words [6]	EC50 ([1]; Table 7, FA patient fibroblasts, 10 mM BSO, 48 hrs, MTT, read-out: BSO Assay) [nM]	EC50 ([2]; ATP bioluminescence, read-out: EC50 Rotenone ATP Assay) [nM]	EC50 ([2]; Table 7, read-out: Rotenone ATP Assay EC50) [nM]	EC50 ([3]; Table 3, mean of at least three measurements, unit printed in Table 7, read-out: RSL3 Assay EC50, Mean) [nM]	EC50 ([3]; Table 7, read-out: RSL3 Assay EC50) [nM]
CC1=C(C)C(=O)C(CC[C@](C)(O)CC/C=C(\C)CCC=C(F)F)=C(C)C1=O [Compound H, (R,E)-2-(11,11-difluoro-3-hydroxy-3,7-dimethylundeca-6,10-dien-1-yl)-3,5,6-trimethylcyclohexa-2,5-diene-1,4-dione]	able to prevent ferroptotic cell death; also recorded: active	active	active; also recorded: able to prevent ferroptotic cell death	54.3 +/− 13%	do not activate	Inactive	active; also recorded: effective inhibitors					
(R)-2-(3-hydroxy-3-methyl-4-(3-(trimethylsilyl)propoxy)butyl)-3,5,6-trimethylcyclohexa-2,5-diene-1,4-dione [Compound M]	able to prevent ferroptotic cell death; also recorded: active	active	active; also recorded: able to prevent ferroptotic cell death	56.6 +/− 11.3%	do not activate	Inactive	best result; also recorded: effective inhibitors	61.2	1000 to 3000	1340	41.2	41.2

Source: patent publication US20230303506A1, “COMPOSITIONS AND METHODS FOR THE PREVENTION AND/OR TREATMENT OF MITOCHONDRIAL DISEASE, INCLUDING FRIEDREICH'S ATAXIA” (Stealth BioTherapeutics Inc., priority 2019, published 2023)
